Measurements reported in patent publication US10329261B1, “Method of preparing 6-chloro-5-nitro-2,4-diaminopyrimidine and its application thereof” (XI'AN TAIKOMED PHARMACEUTICAL TECHNOLOGY CO., LTD., priority 2018, dated 2019).

Key:
K-562 leukemia = experiment: Inhibition test of nude mice inoculated with K-562 cell line; format: in vivo; conditions: for Tumor weight (X ± SE) / Inhibition (%): ip × 7, nude mice with K-562; for Tumor weight (X ± SE): in g (unit assumed); for Inhibition (%): tumor inhibition rate
Method: Inhibition Test of Nude Mice Inoculated with K-562 Cell Line
Test compounds: 6-chloro-5-nitro-2,4-diaminopyrimidine and imatinib dissolved in normal saline.
Administration route: intraperitoneal injection (ip).
Test animals: nude mice, SPF level.
Cell line: chronic myeloid leukemia cell line K-562, from the Affiliated Hospital of Guangdong Medical College
Test method: 50 nude mice weighing 18-22 grams, both male and female. The K-562 cell was diluted to a final concentration of 10 million cells/mL for leukemia cells; each mouse was inoculated subcutaneously with 0.2 mL (containing […] leukemia cells). On the next day, the mice were randomly divided to 5 groups: 6-chloro-5-nitro-2,4-diaminopyrimidine group (dose: 3 mg/kg), 6-chloro-5-nitro-2,4-diaminopyrimidine group (dose: 8 mg/kg), 6-chloro-5-nitro-2,4-diaminopyrimidine group (dose: 20 mg/kg), positive control group (imatinib, 8 mg/kg) and blank control group. The 6-chloro-5-nitro-2,4-diaminopyrimidine groups and the positive control group were administered once a day for 7 consecutive days; the blank control group was given a corresponding volume of NS liquid. No test compounds were given for one day after the last dose. Animals were sacrificed by cervical dislocation, and weighed and dissected to weigh. The tumor weights were calculated for each group. The leukemia inhibition rate was calculated according to the following formula. Tumor inhibition rate=(mean tumor weight in the control group−average tumor weight in the administration group)/mean tumor weight in the control group×100%,

K-562 = experiment: CCK8 assay, growth inhibition of leukemia cells; format: cell-based; conditions: for inhibition at 1 µM / inhibition at 5 µM / inhibition at 10 µM / inhibition at 50 µM / inhibition at 100 µM: Homo sapiens, K562, 48 hours, read-out: Inhibition Rate % (X ± SD, n = 5); for inhibition at 1 µM: K-562, 1 μmol/L; for inhibition at 5 µM: K-562, 5 μmol/L; for inhibition at 50 µM: K-562, 50 μmol/L; for inhibition at 100 µM: K-562, 100 μmol/L
Method: (§1) Measuring the Inhibitory Effect of 6-Chloro-5-Nitro-2,4-Diaminopyrimidine on the Growth of Six Leukemia Cells by CCK8 Assay
(§2) Cell lines: HL-60 (acute myeloid leukemia), Jurkat (acute T cell leukemia), K562 (chronic myeloid leukemia), EOL-1 (human eosinophil leukemia), Dami (human megakaryocytic leukemia), 6T-CEM (human T cell leukemia) were provided by the Affiliated Hospital of Guangdong Medical College. The cells were cultured in RPMI1640 medium containing 10% fetal bovine serum, penicillin 100 U/mL, streptomycin 100 mg/L, at 37° C., 5% CO2, and saturated humidity, in incubator, and logarithmic growth phase cells were used for experiments.
(§3) Test compounds: Imatinib solution and 6-chloro-5-nitro-2,4-diaminopyrimidine solution were prepared with physiological saline, and the final concentrations of the compounds were 1, 5, 10, 50, and 100 μmol/L.
(§4) Test method: Take the logarithmic growth leukemia cell lines, count, and inoculate at a density of 1×10^5/mL in a 96-well culture plate, 100 μL per well. After 24 hours of culture, 100 μL medium containing the different concentrations (double the target/final concentration) of compounds was added to each well. The medium containing the highest concentration of DMSO was used as a control. After 48 hours, 20 μL of CCK8 coloring solution was added to each well, the color was developed at 37° C., and OD450 was measured with a microplate reader until the absorbance was about 1.5. The inhibition rate was calculated by the following formula. Inhibition Rate (%)=(1−absorbance of the test compound/absorbance of the control)×100%

Jurkat = experiment: CCK8 assay, growth inhibition of leukemia cells; format: cell-based; conditions: for inhibition at 1 µM / inhibition at 5 µM / inhibition at 10 µM / inhibition at 50 µM / inhibition at 100 µM: Homo sapiens, 48 hours, read-out: Inhibition Rate % (X ± SD, n = 5); for inhibition at 1 µM: 1 μmol/L; for inhibition at 5 µM: 5 μmol/L; for inhibition at 10 µM: 10 μmol/L; for inhibition at 50 µM: 50 μmol/L; for inhibition at 100 µM: 100 μmol/L
Method: as §1, §2, §3, §4

HL-60 = experiment: CCK8 assay, growth inhibition of leukemia cells; format: cell-based; conditions: for inhibition at 1 µM / inhibition at 5 µM / inhibition at 10 µM / inhibition at 50 µM / inhibition at 100 µM: Homo sapiens, 48 hours, read-out: Inhibition Rate % (X ± SD, n = 5); for inhibition at 1 µM: HL-60, 1 μmol/L; for inhibition at 5 µM: HL-60, 5 μmol/L; for inhibition at 10 µM: HL-60, 10 μmol/L; for inhibition at 50 µM: HL-60, 50 μmol/L; for inhibition at 100 µM: HL-60, 100 μmol/L
Method: as §1, §2, §3, §4

6T-CEM = experiment: CCK8 assay, growth inhibition of leukemia cells; format: cell-based, human; conditions: for inhibition at 1 µM / inhibition at 5 µM / inhibition at 10 µM / inhibition at 50 µM / inhibition at 100 µM: Homo sapiens, 48 hours, read-out: Inhibition Rate % (X ± SD, n = 5); for inhibition at 1 µM: 1 μmol/L; for inhibition at 5 µM: 5 μmol/L; for inhibition at 10 µM: 10 μmol/L; for inhibition at 50 µM: 50 μmol/L; for inhibition at 100 µM: 100 μmol/L
Method: as §1, §2, §3, §4

EOL-1 = experiment: CCK8 assay, growth inhibition of leukemia cells; format: cell-based, human; conditions: for inhibition at 1 µM / inhibition at 5 µM / inhibition at 10 µM / inhibition at 50 µM / inhibition at 100 µM: Homo sapiens, EOL1, 48 hours, read-out: Inhibition Rate % (X ± SD, n = 5); for inhibition at 1 µM: EOL-1, 1 μmol/L; for inhibition at 5 µM: EOL-1, 5 μmol/L; for inhibition at 10 µM: EOL-1, 10 μmol/L; for inhibition at 50 µM: EOL-1, 50 μmol/L; for inhibition at 100 µM: EOL-1, 100 μmol/L
Method: as §1, §2, §3, §4

Dami = experiment: CCK8 assay, growth inhibition of leukemia cells; format: cell-based, human; conditions: for inhibition at 1 µM / inhibition at 5 µM / inhibition at 10 µM / inhibition at 50 µM / inhibition at 100 µM: Homo sapiens, 48 hours, read-out: Inhibition Rate % (X ± SD, n = 5); for inhibition at 1 µM: 1 μmol/L; for inhibition at 5 µM: 5 μmol/L; for inhibition at 10 µM: 10 μmol/L; for inhibition at 50 µM: 50 μmol/L; for inhibition at 100 µM: 100 μmol/L
Method: as §1, §2, §3, §4

In the case of `Nc1nc(N)c([N+](=O)[O-])c(Cl)n1` [6-chloro-5-nitro-2,4-diaminopyrimidine], the “Tumor weight (X ± SE)” value (K-562 leukemia; 3 mg/kg) was 1.84, the “Tumor weight (X ± SE)” value (K-562 leukemia; 8 mg/kg) was 0.87 and the “Tumor weight (X ± SE)” value (K-562 leukemia; 20 mg/kg) was 0.74. For the same molecule, the “Inhibition (%)” value (K-562 leukemia; 3 mg/kg) was 48.41%, the “Inhibition (%)” value (K-562 leukemia; 8 mg/kg) was 75.18% and the “Inhibition (%)” value (K-562 leukemia; 20 mg/kg) was 79.34%. For the same molecule, the inhibition at 1 µM (K-562) was 45.5%, the inhibition at 5 µM (K-562) was 61.5% and the inhibition at 10 µM (K-562; K-562, 10 μmol/L) was 76.8%. For the same molecule, the inhibition at 50 µM (K-562) was 77.3%, the inhibition at 100 µM (K-562) was 78.4% and the “inhibition rate compared with imatinib” value (K-562; K-562, 10 μmol/L) was “exceeds that of imatinib”. For the same molecule, the “inhibitory effect on the cell line (in words)” value (“inhibitory effect” for short) (K-562; K-562 cell line) was “good inhibitory effect”, the “selectivity among the six leukemia cell lines (in words)” value (K-562; K-562 versus HL-60, Jurkat, EOL-1, Dami, 6T-CEM) was “selectively inhibits chronic myelogenous leukemia cell line” and the “inhibitory effect” value (Jurkat) was “does not show any inhibition”. For the same molecule, the inhibition at 1 µM (Jurkat) was -13.5%, the inhibition at 5 µM (Jurkat) was -15.9% and the inhibition at 10 µM (Jurkat) was -27%. For the same molecule, the inhibition at 50 µM (Jurkat) was -28.1%, the inhibition at 100 µM (Jurkat) was -30% and the “inhibitory effect” value (HL-60; HL-60) was “does not show any inhibition”. For the same molecule, the inhibition at 1 µM (HL-60) was 3.87%, the inhibition at 5 µM (HL-60) was -1.12% and the inhibition at 10 µM (HL-60) was -7.66%. The inhibition at 50 µM (HL-60) was -9.26%, the inhibition at 100 µM (HL-60) was -14.2% and the “inhibitory effect” value (6T-CEM) was “does not show any inhibition”. It also gave an inhibition at 1 µM (6T-CEM) of -17.5%, an inhibition at 5 µM (6T-CEM) of -21.1% and an inhibition at 10 µM (6T-CEM) of -25.5%. The inhibition at 50 µM (6T-CEM) was -28.1%, the inhibition at 100 µM (6T-CEM) was -31% and the “inhibitory effect” value (EOL-1; EOL-1) was “does not show any inhibition”. For the same molecule, the inhibition at 1 µM (EOL-1) was -22.4%, the inhibition at 5 µM (EOL-1) was -23% and the inhibition at 10 µM (EOL-1) was -23.3%. The inhibition at 50 µM (EOL-1) was -19.3%, the inhibition at 100 µM (EOL-1) was -18.9% and the “inhibitory effect” value (Dami) was “does not show any inhibition”. The inhibition at 1 µM (Dami) was -14.2%, the inhibition at 5 µM (Dami) was -17.7% and the inhibition at 10 µM (Dami) was -22%. The inhibition at 50 µM (Dami) was -26% and the inhibition at 100 µM (Dami) was -30.3%.
With `Cc1ccc(NC(=O)c2ccc(CN3CCN(C)CC3)cc2)cc1Nc1nccc(-c2cccnc2)n1` [Imatinib, reference compound] the “Number of mice before and after” value (K-562 leukemia; 8 mg/kg, ip × 7) was 10/10, the “Tumor weight (X ± SE)” value (K-562 leukemia; 8 mg/kg) was 0.93 and the Mouse weight after (K-562 leukemia; 8 mg/kg, ip × 7, weight before 19.5) was 20.4. For the same molecule, the “Inhibition (%)” value (K-562 leukemia; 8 mg/kg) was 74.02%, the inhibition at 1 µM (K-562) was 66.4% and the inhibition at 5 µM (K-562) was 67.9%. It also gave an inhibition at 10 µM (K-562; K-562, 10 μmol/L) of 71.6%, an inhibition at 50 µM (K-562) of 83.1% and an inhibition at 100 µM (K-562) of 88.3%. The inhibition at 1 µM (Jurkat) was 66.7%, the inhibition at 5 µM (Jurkat) was 71% and the inhibition at 10 µM (Jurkat) was 73.3%. For the same molecule, the inhibition at 50 µM (Jurkat) was 85.7%, the inhibition at 100 µM (Jurkat) was 90.9% and the inhibition at 1 µM (HL-60) was 62.2%. For the same molecule, the inhibition at 5 µM (HL-60) was 69.5%, the inhibition at 10 µM (HL-60) was 64.6% and the inhibition at 50 µM (HL-60) was 83.1%. It also gave an inhibition at 100 µM (HL-60) of 84.5%, an inhibition at 1 µM (6T-CEM) of 68.2% and an inhibition at 5 µM (6T-CEM) of 70.8%. The inhibition at 10 µM (6T-CEM) was 74.9%, the inhibition at 50 µM (6T-CEM) was 86.5% and the inhibition at 100 µM (6T-CEM) was 91.3%. The inhibition at 1 µM (EOL-1) was 63.6%, the inhibition at 5 µM (EOL-1) was 66.2% and the inhibition at 10 µM (EOL-1) was 68.4%. For the same molecule, the inhibition at 50 µM (EOL-1) was 79.1%, the inhibition at 100 µM (EOL-1) was 86.4% and the inhibition at 1 µM (Dami) was 61.3%. For the same molecule, the inhibition at 5 µM (Dami) was 65.4%, the inhibition at 10 µM (Dami) was 69.3% and the inhibition at 50 µM (Dami) was 82.1%. The inhibition at 100 µM (Dami) was 89.4%.
